The test has as its target T1, GAK kinase (Homo sapiens, UniProt O14976).
T1 construct: made in house; host or cells: E. coli host derived from the BL21 strain, infected with T7 phage
T1 sequence (O14976 1-1311): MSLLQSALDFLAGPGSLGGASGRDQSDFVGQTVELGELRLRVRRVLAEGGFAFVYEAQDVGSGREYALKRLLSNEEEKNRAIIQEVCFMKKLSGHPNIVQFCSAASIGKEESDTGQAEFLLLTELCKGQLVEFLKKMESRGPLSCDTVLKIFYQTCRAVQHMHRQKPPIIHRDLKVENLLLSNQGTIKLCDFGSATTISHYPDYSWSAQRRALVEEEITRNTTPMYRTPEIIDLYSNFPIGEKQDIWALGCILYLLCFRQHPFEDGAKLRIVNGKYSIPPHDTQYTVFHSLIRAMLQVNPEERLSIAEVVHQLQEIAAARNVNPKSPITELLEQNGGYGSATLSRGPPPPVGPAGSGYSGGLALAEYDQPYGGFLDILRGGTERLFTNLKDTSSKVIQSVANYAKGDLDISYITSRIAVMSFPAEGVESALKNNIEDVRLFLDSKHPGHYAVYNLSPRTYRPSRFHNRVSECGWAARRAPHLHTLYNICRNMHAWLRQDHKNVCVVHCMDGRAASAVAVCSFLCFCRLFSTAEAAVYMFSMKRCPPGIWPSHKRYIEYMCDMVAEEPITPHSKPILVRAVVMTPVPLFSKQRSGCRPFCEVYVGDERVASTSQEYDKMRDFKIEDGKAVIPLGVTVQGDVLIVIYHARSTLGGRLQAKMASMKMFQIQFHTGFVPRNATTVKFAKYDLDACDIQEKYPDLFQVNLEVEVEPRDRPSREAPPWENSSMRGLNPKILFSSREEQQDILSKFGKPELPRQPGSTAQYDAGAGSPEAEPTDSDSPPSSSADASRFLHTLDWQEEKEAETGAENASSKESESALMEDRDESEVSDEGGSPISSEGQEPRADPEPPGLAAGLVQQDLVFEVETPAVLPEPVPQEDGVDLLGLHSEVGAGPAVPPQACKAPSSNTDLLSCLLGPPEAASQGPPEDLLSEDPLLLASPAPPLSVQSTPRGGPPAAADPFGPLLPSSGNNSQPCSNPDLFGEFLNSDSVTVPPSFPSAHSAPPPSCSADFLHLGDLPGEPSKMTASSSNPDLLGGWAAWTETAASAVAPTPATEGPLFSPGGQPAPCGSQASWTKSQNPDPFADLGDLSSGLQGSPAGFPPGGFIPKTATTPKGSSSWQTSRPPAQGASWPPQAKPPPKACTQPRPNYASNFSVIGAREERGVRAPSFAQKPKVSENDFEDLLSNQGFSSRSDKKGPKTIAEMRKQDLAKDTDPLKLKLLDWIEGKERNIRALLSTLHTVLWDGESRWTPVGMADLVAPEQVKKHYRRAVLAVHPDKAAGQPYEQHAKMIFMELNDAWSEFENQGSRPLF
As to the kind of experiment: GAK binding assay (T7 phage kinase competition binding). The conditions noted are these: for remaining binding at 10 µM: single concentration of 10 μM, lower numbers indicate stronger hits, read-out: % Ctrl; for Kd: determined for selected compounds with % control <5 at 10 μM. As for the experimental part:
The compounds of the invention were assayed for their GAK kinase binding affinity using the protocols, as described in Fabian, M. A. et al. A small molecule-kinase interaction map for clinical kinase inhibitors. Nat. Biotechnol.
T7 kinase-tagged phage strains were grown in parallel in 24- or 96-well blocks in an E. coli host derived from the BL21 strain. E. coli were grown to log phase and infected with T7 phage from a frozen stock (multiplicity of infection ˜0.1) and incubated with shaking at 32° C. until lysis (˜90 min). The lysates were centrifuged (6,000 g) and filtered ([…]) to remove cell debris. […] The liganded beads were blocked with excess biotin and washed with blocking buffer (SeaBlock (Pierce), 1% BSA, 0.05% Tween 20, 1 mM DTT) to remove unbound ligand and to reduce nonspecific phage binding. […] Test compounds were prepared as 1,000× stocks in DMSO and rapidly diluted into the aqueous environment (0.1% DMSO final). DMSO (0.1%) was added to control assays lacking a test compound. All reactions were carried out in polystyrene 96-well plates that had been pretreated with blocking buffer in a final volume of 0.1 ml. […] The phage titer in the eluates was measured by standard plaque assays or by quantitative PCR.
The compounds were tested at a single concentration of 10 μM.
[formula] Binding Constant Measurements
Kd(probe) is the binding constant for the interaction between the kinase and the immobilized ligand, [Probe] is the concentration of the immobilized ligand and [test]1/2 is the concentration of the free test compound at the midpoint of the transition. If [Probe] is below Kd(probe) the expression simplifies to Kd(test)=[test]1/2. Under these conditions the binding constants measured for the interaction between kinases and test compounds (Kd(test)) are therefore independent of the affinity of the immobilized ligand for the kinase (Kd(probe)). T7 phage grow to a titer of 10^8-10^10 plaque forming units (PFU)/ml, and the concentration of phage-tagged kinase in the binding reaction is therefore in the low picomolar range. […] Clustering and visualization was performed with Cluster 3.0 (M. Eisen, Stanford University) and Mapletree software (M. Eisen, Stanford University; L. Simirenko, Lawrence Berkeley National Lab).

For orientation: Kd means the constant that tells how readily two partners part at equilibrium. Read a low Kd as a tighter complex.

Regarding “6-bromo-6-ethanolamino-isothiazolo[4,3-b]pyridine [Example 12]”, for the setting “10 µM”, the “% Ctrl” value worked out at 62%.
Regarding `Nc1snc2cc(Br)cnc12` [Example 3, 3-amino-6-bromo-Isothiazolo[4,3-b]pyridine], the remaining binding at 10 µM was found to be 97%.
`Brc1cnc2c(N3CCOCC3)snc2c1` [Example 11, 6-bromo-3-morpholino-isothiazolo[4,3-b]pyridine]: the remaining binding at 10 µM was found to be 50%.
On the same count and under the same terms, the same measure for `COc1snc2cc(Br)cnc12` [Example 14, 3-methoxy-6-bromo-isothiazolo[4,3-b]pyridine]: 100%.
As for `COc1snc2cc(-c3ccccc3)cnc12` [Example 33, 3-methoxy-6-phenyl-isothiazolo[4,3-b]pyridine], the remaining binding at 10 µM came out at 9.4%.
With `COc1snc2cc(-c3cccnc3)cnc12` [Example 35, 3-methoxy-6-(3-pyridyl)-isothiazolo[4,3-b]pyridine], the remaining binding at 10 µM was 93%.
Take `COc1ccc(-c2cnc3c(OC)snc3c2)cc1OC` [Example 36, 3-methoxy-6-(3,4-dimethoxyphenyl)-isothiazolo[4,3-b]pyridine]: the remaining binding at 10 µM worked out at 19%.
Turning to `COc1snc2cc(-c3ccsc3)cnc12` [Example 37, 3-methoxy-6-(3-thienyl)-isothiazolo[4,3-b]pyridine], the remaining binding at 10 µM was found to be 22%.
For the compound `COC(=O)c1ccc(-c2cnc3c(N4CCOCC4)snc3c2)cc1OC` [Example 46, Methyl 2-methoxy-4-(3-morpholinoisothiazolo[4,3-b]pyridin-6-yl)benzoate], the affinity, expressed as Kd, was 19 nM and the remaining binding at 10 µM was 2.8%.
Take `COC(=O)c1ccc(-c2cnc3c(N4CCOCC4)snc3c2)cc1` [Example 53, Methyl 4-(3-morpholinoisothiazolo[4,3-b]pyridin-6-yl)benzoate]: the remaining binding at 10 µM was 9%.
Take `CNC(=O)c1ccc(-c2cnc3c(N4CCOCC4)snc3c2)cc1` [Example 54, N-Methyl-4-(3-morpholinoisothiazolo[4,3-b]pyridin-6-yl)benzamide]: binding was put at a Kd of 88 nM and the remaining binding at 10 µM is 0.05%.
Turning to `COc1cc(Br)c(-c2cnc3c(N4CCOCC4)snc3c2)cc1OC` [Example 60, 4-(6-(2-bromo-4,5-dimethoxyphenyl)isothiazolo[4,3-b]pyridin-3-yl)morpholine], binding was characterised by a dissociation constant (Kd) of 180 nM and the remaining binding at 10 µM turned out to be 1.1%.
Regarding `COc1cccc(-c2cnc3c(N4CCOCC4)snc3c2)c1` [Example 61, 4-(6-(3-methoxyphenyl)isothiazolo[4,3-b]pyridin-3-yl)morpholine], binding was characterised by a dissociation constant (Kd) of 180 nM and the remaining binding at 10 µM stood at 0.05%.
The corresponding values for `COc1ccc(-c2cnc3c(N4CCOCC4)snc3c2)cc1OC(C)=O` [Example 62, 2-methoxy-5-(3-morpholinoisothiazolo[4,3-b]pyridin-6-yl)phenyl acetate] are 82 nM and 0%.
Regarding `COc1ccc(-c2cnc3c(N4CCOCC4)snc3c2)cc1` [Example 63, 4-(6-(4-methoxyphenyl)isothiazolo[4,3-b]pyridin-3-yl)morpholine], binding was characterised by a dissociation constant (Kd) of 140 nM and the remaining binding at 10 µM came to 0.6%.
On to `COc1ccc(-c2cnc3c(N4CCC(=O)CC4)snc3c2)cc1OC` [Example 65, 1-(6-(3,4-dimethoxyphenyl)isothiazolo[4,3-b]pyridin-3-yl)piperidin-4-one], for which binding was characterised by a dissociation constant (Kd) of 31 nM and the remaining binding at 10 µM was 0%.
As to `COc1ccc(-c2cnc3c(NCCCCCO)snc3c2)cc1OC` [Example 67, 5-(6-(3,4-dimethoxyphenyl)isothiazolo[4,3-b]pyridin-3-ylamino)pentan-1-ol], the affinity, expressed as Kd, was 210 nM and the remaining binding at 10 µM came out at 0.85%.
For `COc1ccc(-c2cnc3c(N4CCCC(O)C4)snc3c2)cc1OC` (stereo not shown) [Example 68, 1-(6-(3,4-dimethoxyphenyl)isothiazolo[4,3-b]pyridin-3-yl)piperidin-3-ol], binding was characterised by a dissociation constant (Kd) of 69 nM and the remaining binding at 10 µM came out at 0.05%.
In the case of `COc1ccc(-c2cnc3c(NCC(O)CO)snc3c2)cc1OC` (stereo not shown) [Example 71, 3-(6-(3,4-dimethoxyphenyl)isothiazolo[4,3-b]pyridin-3-ylamino)propane-1,2-diol], the Kd was 330 nM and the remaining binding at 10 µM stood at 2.6%.
As for `CCOC(=O)N1CCC(Nc2snc3cc(-c4ccc(OC)c(OC)c4)cnc23)CC1` [Example 72, ethyl 4-(6-(3,4-dimethoxyphenyl)isothiazolo[4,3-b]pyridin-3-ylamino)piperidine-1-carboxylate], the remaining binding at 10 µM was determined as 40%.
Turning to `CCN(CC)c1snc2cc(-c3ccc(OC)c(OC)c3)cnc12` [Example 79, 6-(3,4-dimethoxyphenyl)-N,N-diethylisothiazolo[4,3-b]pyridin-3-amine], binding was put at a Kd of 210 nM and the remaining binding at 10 µM came out at 0.05%.
On to `COc1ccc(-c2cnc3c(N4CCC5(CC4)OCCO5)snc3c2)cc1OC` [Example 81, 8-(6-(3,4-dimethoxyphenyl)isothiazolo[4,3-b]pyridin-3-yl)-1,4-dioxa-8-azaspiro[4.5]decane], for which the remaining binding at 10 µM is 12%.
On to `COc1ccc(-c2cnc3c(-c4ccccc4)snc3c2)cc1OC` [Example 82, 6-(3,4-dimethoxyphenyl)-3-phenylisothiazolo[4,3-b]pyridine], for which binding was characterised by a dissociation constant (Kd) of 260 nM and the remaining binding at 10 µM was found to be 0.15%.
In the case of `COc1ccc(-c2cnc3c(-c4ccncc4)snc3c2)cc1OC` [Example 83, 6-(3,4-dimethoxyphenyl)-3-(pyridin-4-yl)isothiazolo[4,3-b]pyridine], the affinity, expressed as Kd, was 52 nM and the remaining binding at 10 µM was 0.05%.
For `COc1ccc(-c2cnc3c(-c4ccsc4)snc3c2)cc1OC` [Example 84, 6-(3,4-dimethoxyphenyl)-3-(thiophen-3-yl)isothiazolo[4,3-b]pyridine], the Kd is 140 nM and the remaining binding at 10 µM was determined as 0%.
Consider `COc1ccc(-c2cnc3csnc3c2)cc1OC` [Example 85, 6-(3,4-dimethoxyphenyl)isothiazolo[4,3-b]pyridine], for which the remaining binding at 10 µM came out at 31%.
In the case of `COc1cc(Br)c(-c2cnc3c(N4CCC(C)CC4)snc3c2)cc1OC` [Example 86, 6-(2-bromo-4,5-dimethoxyphenyl)-3-(4-methylpiperidin-1-yl)isothiazolo[4,3-b]pyridine], the remaining binding at 10 µM came out at 92%.
With `CCOc1snc2cc(-c3cc(OC)c(OC)cc3Br)cnc12` [Example 87, 6-(2-bromo-4,5-dimethoxyphenyl)-3-ethoxyisothiazolo[4,3-b]pyridine], the Kd is 330 nM and the remaining binding at 10 µM was found to be 4.3%.

The values above are taken from patent publication US9518066B2, “GAK modulators” (KATHOLIEKE UNIVERSITEIT LEUVEN, priority 2013, dated 2016).
